The target in experiment [1] is Diacylglycerol kinase zeta (Homo sapiens, UniProt Q13574). The experiment can be described thus: Biochemical DGK IC50 Assays. As to the method:
(§1) Enzymatic reactions of DGKζ, DGKα and DGKδ were performed using ADP-Glo assay with lipid micelle substrate. […] Full length DGKα (D21-10BG, SignalChem) and full length DGKδ (D23-10G, SignalChem) were purchased. […] The resulted product was resuspended in buffer containing 25 mM HEPES pH 7.0, 0.5 mM EDTA and 160 mM Octyl P-D glucopyranoside by vigorous mixing and ultrasonic (IID, Scientz). Final concentration in reaction. […] The inhibition activities testing for the compound disclosed herein were carried out at room temperature in assay buffer containing 50 mM HEPES, 10 mM MgCl2, 0.01% BSA, 0.1 mM Na3VO4, 0.005% Tween-20 and 0.01 mM CaCl2. […] 3 μL 2× enzyme solution was added to wells. […] After 1 hour reaction, 5 μL ADP-Glo reagent (Promga V9101) was added and incubated for 40 minutes. 10 μL Kinase Detection reagent was added and incubated for 30 minutes. Luminescence was measured on a microplate reader (PHERAstar FSX, BMG labtech). The IC50s are calculated based on inhibition of enzyme activity in the presence of increasing concentrations of compounds.

Experiment [2] deals with Diacylglycerol kinase alpha (Homo sapiens, UniProt P23743). The experiment can be described thus: Biochemical DGK IC50 Assays. As to the method: as §1
Sequence of Diacylglycerol kinase alpha (P23743 whole entry): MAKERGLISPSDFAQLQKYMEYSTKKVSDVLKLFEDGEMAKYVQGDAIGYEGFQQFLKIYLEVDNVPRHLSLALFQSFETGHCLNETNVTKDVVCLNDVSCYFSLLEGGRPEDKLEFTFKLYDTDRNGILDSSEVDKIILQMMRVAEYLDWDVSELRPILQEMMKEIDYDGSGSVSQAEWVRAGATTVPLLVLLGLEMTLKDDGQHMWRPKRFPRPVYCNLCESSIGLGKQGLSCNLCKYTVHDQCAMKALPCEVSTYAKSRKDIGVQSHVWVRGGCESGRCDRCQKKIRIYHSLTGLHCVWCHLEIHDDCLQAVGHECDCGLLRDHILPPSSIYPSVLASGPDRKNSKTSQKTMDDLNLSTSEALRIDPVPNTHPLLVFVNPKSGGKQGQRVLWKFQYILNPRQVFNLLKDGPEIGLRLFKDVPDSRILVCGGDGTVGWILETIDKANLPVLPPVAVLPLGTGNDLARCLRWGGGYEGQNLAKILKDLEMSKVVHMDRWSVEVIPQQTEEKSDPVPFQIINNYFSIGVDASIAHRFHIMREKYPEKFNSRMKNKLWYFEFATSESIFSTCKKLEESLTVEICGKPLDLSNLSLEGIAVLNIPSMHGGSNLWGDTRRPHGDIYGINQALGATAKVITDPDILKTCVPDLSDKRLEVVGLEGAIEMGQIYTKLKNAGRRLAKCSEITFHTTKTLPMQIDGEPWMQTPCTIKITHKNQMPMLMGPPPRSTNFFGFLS

Sequence of Diacylglycerol kinase zeta (Q13574 as listed by the source): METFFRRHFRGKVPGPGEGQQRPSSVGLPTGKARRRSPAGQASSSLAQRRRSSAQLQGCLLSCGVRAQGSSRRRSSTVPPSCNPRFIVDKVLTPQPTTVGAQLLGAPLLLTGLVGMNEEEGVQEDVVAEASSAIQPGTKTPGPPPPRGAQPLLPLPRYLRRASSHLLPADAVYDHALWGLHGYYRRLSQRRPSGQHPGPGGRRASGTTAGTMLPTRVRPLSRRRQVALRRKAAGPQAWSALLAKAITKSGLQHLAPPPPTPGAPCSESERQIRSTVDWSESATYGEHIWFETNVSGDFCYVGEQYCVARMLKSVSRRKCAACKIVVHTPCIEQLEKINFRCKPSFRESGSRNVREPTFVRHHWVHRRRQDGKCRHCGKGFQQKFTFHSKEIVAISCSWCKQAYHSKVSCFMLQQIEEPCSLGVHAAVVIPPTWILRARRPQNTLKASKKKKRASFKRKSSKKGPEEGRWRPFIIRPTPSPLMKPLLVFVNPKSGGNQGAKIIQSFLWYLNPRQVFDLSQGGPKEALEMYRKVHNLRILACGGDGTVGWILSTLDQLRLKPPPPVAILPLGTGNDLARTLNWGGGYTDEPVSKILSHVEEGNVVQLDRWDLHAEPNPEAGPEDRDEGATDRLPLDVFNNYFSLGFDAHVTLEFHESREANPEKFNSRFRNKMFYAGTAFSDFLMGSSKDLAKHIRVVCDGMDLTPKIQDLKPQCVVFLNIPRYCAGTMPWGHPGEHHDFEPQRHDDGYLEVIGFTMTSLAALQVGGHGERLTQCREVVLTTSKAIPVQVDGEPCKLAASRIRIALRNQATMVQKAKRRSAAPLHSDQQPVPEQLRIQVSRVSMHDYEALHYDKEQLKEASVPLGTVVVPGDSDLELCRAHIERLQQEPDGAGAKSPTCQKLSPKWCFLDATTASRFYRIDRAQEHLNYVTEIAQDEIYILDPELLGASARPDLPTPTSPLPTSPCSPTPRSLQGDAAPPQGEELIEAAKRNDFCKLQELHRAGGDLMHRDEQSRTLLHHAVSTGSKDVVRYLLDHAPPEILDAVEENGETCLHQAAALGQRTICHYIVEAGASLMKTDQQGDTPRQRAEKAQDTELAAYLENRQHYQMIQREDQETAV

In the case of `CC[C@@H]1CN(C2CC(=O)N(C)C3=CN(CC#N)NC32)[C@@H](CC)CN1C(C)c1ccc(OCCOC)cc1` (stereo partly drawn) [US20250346597, Compound A11], the IC50 in experiment [1] was found to be 500 nM; in experiment [2], 79 nM. For `CC[C@H]1CN(C(C)c2ccc(N)nc2)[C@H](CC)CN1c1cc(=O)n(C)c2cn(CC#N)nc12` (single isomer, unassigned) [US20250346597, Compound A187b], the IC50 in experiment [1] is > 10000 nM.

Broadly, the IC50 is the concentration at which inhibition is half-maximal. A high value points to weaker potency in that assay.

Values taken from BindingDB's records for patent US20250346597 (Beone Medicines I, 2025).
